Values quoted from earlier work in patent publication US20120309847A1, “DOSING REGIMENS AND METHODS FOR TREATING OR PREVENTING PROMYELOCYTIC LEUKEMIA” (NBI Pharmaceuticals, Inc., priority 2011, published 2012).

What was measured:
APL [1] = details: enocitabine 100-200 mg/m^2 continuous infusion 7 days combined with daunorubicin i.v. 3 days; cited from earlier work
APL [2] = details: ATRA combined with anthracycline based chemotherapy; cited from earlier work

For `CCCCCCCCCCCCCCCCCCCCCC(=O)Nc1ccn([C@@H]2O[C@H](CO)[C@@H](O)[C@@H]2O)c(=O)n1` [enocitabine], the long-term disease-free survival (APL [1]) is listed as ~30%.
In the case of `CC1=C(/C=C/C(C)=C/C=C/C(C)=C/C(=O)O)C(C)(C)CCC1` [ATRA, all-trans retinoic acid], the “clinical remission, share of patients” value (APL [2]) is given as “approximately 90%”.
